The numbers were not newly measured in paper PMC8513935, which cites them from elsewhere.

Molecules are shown by their SMILES.

Data set [1] in a line: experimental, compiled by the authors from the literature (the ESI cites the sources). The conditions noted are these: 25 C.
Data set [2] is described as follows: derived by the authors as gas->solvent minus gas->water (a hypothetical dry solvent; the ESI), not a two-phase measurement. The note with it: 25 C.

In the case of `CCCCCc1ccccc1`, the log K of transfer, gas to solvent is 5.23 log10 K in data set [1] (Hexadecane) and 0.17 log10 K in data set [1] (Water). For the same compound, the log K of transfer, water to solvent in data set [2] (Hexadecane) was 5.06 log10 K.

`CC(C)(C)C`: the log K of transfer, gas to solvent in data set [1] (Hexadecane) is 1.82 log10 K; in data set [1] (Hexane), 2.03 log10 K; in data set [1] (Methanol), 1.4 log10 K; in data set [1] (Water) it was -1.84 log10 K. Besides, the log K of transfer, water to solvent in data set [2] (Hexadecane) was 3.66 log10 K; in data set [2] (Hexane) it was 3.87 log10 K; in data set [2] (Methanol), 3.24 log10 K.

For the compound `CN(C)C=O`, the log K of transfer, gas to solvent in data set [1] (Butanone) was 4.7 log10 K; in data set [1] (Hexadecane) it was 3.17 log10 K; in data set [1] (Octan-1-ol), 4.38 log10 K; in data set [1] (Propanone) it was 4.71 log10 K; in data set [1] (Tetrahydrofuran), 4.39 log10 K; in data set [1] (Water), 5.73 log10 K. For the same compound, the log K of transfer, water to solvent in data set [2] (Acetone) is -1.02 log10 K; in data set [2] (Butanone), -1.03 log10 K; in data set [2] (Hexadecane), -2.56 log10 K; in data set [2] (Octan-1-ol(dry)), -1.35 log10 K; in data set [2] (Tetrahydrofuran), -1.34 log10 K.
